Results taken from ChEMBL document CHEMBL1201862, “PubChem BioAssay data set” (2004).
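Step 1: Grow cells in 96-well plates. Step 2: Expose to compound for 48 hours at 5 concentrations. Step 3: Interpolate endpoints linearly; if unreached, use highest concentration. GI50: concentration for 50% inhibition of growth.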 Active and inactive are the calls of the source. Rule as the data show it: active = GI50 up to about 1.1 µM and inactive = higher.

Key:
Experiment in all cases: DTP human tumour cell line panel, 48 h
CAKI-1 = test system: CAKI-1
COLO 205 = test system: COLO 205
DU-145 = test system: DU-145
HCC 2998 = test system: HCC 2998
HCT-15 = test system: HCT-15
HOP-92 = test system: HOP-92
Hs-578T = test system: Hs-578T
M14 = test system: M14
MDA-MB-435 = test system: MDA-MB-435
MOLT-4 = test system: MOLT-4
NCI-H23 = test system: NCI-H23
NCI-H522 = test system: NCI-H522
OVCAR-3 = test system: OVCAR-3
OVCAR-8 = test system: OVCAR-8
PC-3 = test system: PC-3
RXF 393 = test system: RXF 393
SK-MEL-5 = test system: SK-MEL-5
SK-OV-3 = test system: SK-OV-3
U-251 = test system: U-251
UACC-62 = test system: UACC-62

| Structure (SMILES) | GI50 (CAKI-1) | GI50 (COLO 205) | GI50 (DU-145) | GI50 (HCC 2998) | GI50 (HCT-15) [µM] | GI50 (HOP-92) | GI50 (Hs-578T) | GI50 (M14) | GI50 (MDA-MB-435) | GI50 (MOLT-4) | GI50 (NCI-H23) | GI50 (NCI-H522) | GI50 (OVCAR-3) | GI50 (OVCAR-8) | GI50 (PC-3) | GI50 (RXF 393) | GI50 (SK-MEL-5) | GI50 (SK-OV-3) | GI50 (U-251) | GI50 (UACC-62) |
| --- | --- | --- | --- | --- | --- | --- | --- | --- | --- | --- | --- | --- | --- | --- | --- | --- | --- | --- | --- | --- |
| N#CC1=C(N2CCCC2)NC(=O)CC1=O | > 100 µM (inactive) | > 100 µM (inactive) | > 100 µM (inactive) | > 100 µM (inactive) | > 100 | > 100 µM (inactive) | > 100 µM (inactive) | > 100 µM (inactive) | > 100 µM (inactive) | > 100 µM (inactive) | > 100 µM (inactive) | > 100 µM (inactive) | > 100 µM (inactive) | > 100 µM (inactive) | > 100 µM (inactive) | > 100 µM (inactive) | > 100 µM (inactive) | > 100 µM (inactive) | > 100 µM (inactive) | > 100 µM (inactive) |
| CCOC(=O)c1c(N2CCCC2)[nH]c(=O)c(C(c2c(O)c(C(=O)OCC)c(N3CCCC3)[nH]c2=O)C(C)C)c1O | 48 µM (inactive) | > 100 µM (inactive) | > 100 µM (inactive) | 52.8 µM (inactive) | > 100 | 28.7 µM (inactive) | 42.1 µM (inactive) | > 100 µM (inactive) | > 100 µM (inactive) | > 100 µM (inactive) | 71.1 µM (inactive) | 43.5 µM (inactive) | > 100 µM (inactive) | > 100 µM (inactive) | 33.6 µM (inactive) | 43 µM (inactive) | > 100 µM (inactive) | > 100 µM (inactive) | 37.8 µM (inactive) | > 100 µM (inactive) |
| CC(=O)NNc1nc(C)c(C(/C=C/c2ccc([N+](=O)[O-])cc2)=N/NC(N)=S)s1 | > 100 µM (inactive) | > 100 µM (inactive) | > 100 µM (inactive) | > 100 µM (inactive) | > 100 | > 100 µM (inactive) | > 100 µM (inactive) | > 100 µM (inactive) | > 100 µM (inactive) | > 100 µM (inactive) | > 100 µM (inactive) | > 100 µM (inactive) | > 100 µM (inactive) | > 100 µM (inactive) | > 100 µM (inactive) | > 100 µM (inactive) | > 100 µM (inactive) | > 100 µM (inactive) | > 100 µM (inactive) | > 100 µM (inactive) |
| CC1(C)CC(=O)c2[nH]c3ccccc3c2CC(=O)NCCc2cn1cn2 | > 100 µM (inactive) | > 100 µM (inactive) | > 100 µM (inactive) | > 100 µM (inactive) | > 100 | 36.5 µM (inactive) | 33.5 µM (inactive) | > 100 µM (inactive) | > 100 µM (inactive) | > 100 µM (inactive) | > 100 µM (inactive) | > 100 µM (inactive) | > 100 µM (inactive) | > 100 µM (inactive) | > 100 µM (inactive) | 73.8 µM (inactive) | > 100 µM (inactive) | > 100 µM (inactive) | 56.6 µM (inactive) | > 100 µM (inactive) |
| CC1=C(C)CC2C(=O)N(c3cc(C(C)(C)C)ccc3C(C)(C)C)C(=O)C2C1 (stereo not given) | > 100 µM (inactive) | > 100 µM (inactive) | > 100 µM (inactive) | 52.6 µM (inactive) | > 100 | 26.2 µM (inactive) | 5.82 µM (inactive) | 52.1 µM (inactive) | > 100 µM (inactive) | > 100 µM (inactive) | 94.4 µM (inactive) | 8.2 µM (inactive) | 66.2 µM (inactive) | > 100 µM (inactive) | 62.2 µM (inactive) | 23.8 µM (inactive) | > 100 µM (inactive) | 58.3 µM (inactive) | 47.1 µM (inactive) | 14.5 µM (inactive) |
| CCOC(=O)/C1=C(\C)N(c2ccc(C)cc2)C(=O)c2ccccc2C(=O)c2c(O)ccc(O)c21 | 20 µM (inactive) | 20.1 µM (inactive) | 32.2 µM (inactive) | 16.5 µM (inactive) | 14.4 | 22.7 µM (inactive) | 29.2 µM (inactive) | 19.1 µM (inactive) | 18.5 µM (inactive) | 14.5 µM (inactive) | 24.7 µM (inactive) | 18.7 µM (inactive) | 17.8 µM (inactive) | 18.9 µM (inactive) | 24.7 µM (inactive) | 23.2 µM (inactive) | 16.3 µM (inactive) | 35.9 µM (inactive) | 22.4 µM (inactive) | 28 µM (inactive) |
| Cc1ccc(S(=O)(=O)CC2CCCn3c2c(C#N)c2ccccc23)cc1 (stereo not given) | > 100 µM (inactive) | > 100 µM (inactive) | > 100 µM (inactive) | > 100 µM (inactive) | > 100 | > 100 µM (inactive) | > 100 µM (inactive) | > 100 µM (inactive) | > 100 µM (inactive) | > 100 µM (inactive) | > 100 µM (inactive) | > 100 µM (inactive) | > 100 µM (inactive) | > 100 µM (inactive) | 54.2 µM (inactive) | > 100 µM (inactive) | > 100 µM (inactive) | > 100 µM (inactive) | > 100 µM (inactive) | 57.4 µM (inactive) |
| CC(=O)OC(C)(C)[C@H]1O[C@]23O[C@]1(C)C[C@@H](C)[C@@H]2[C@@]1(C)CC[C@@]24C[C@@]25CC[C@H](O[C@@H]2OC[C@@H](O)[C@H](O)[C@H]2O)C(C)(C)[C@@H]5CC[C@H]4[C@]1(C)[C@H]3O | 5.47 µM (inactive) | 9.12 µM (inactive) | 4.34 µM (inactive) | 9.93 µM (inactive) | 3.41 | 9.02 µM (inactive) | 17.4 µM (inactive) | 8.59 µM (inactive) | 8.73 µM (inactive) | 5.32 µM (inactive) | 4.84 µM (inactive) | 7.28 µM (inactive) | 3.59 µM (inactive) | 10.8 µM (inactive) | 4.65 µM (inactive) | 3.36 µM (inactive) | 10.3 µM (inactive) | 12.3 µM (inactive) | 6.41 µM (inactive) | 14.6 µM (inactive) |
| CC(=O)OCC1OC(NC(=S)Nn2c(=O)[nH]c3ccccc3c2=O)C(OC(C)=O)C(OC(C)=O)C1OC(C)=O (stereo not given) | > 100 µM (inactive) | > 100 µM (inactive) | > 100 µM (inactive) | > 100 µM (inactive) | > 100 | > 100 µM (inactive) | > 100 µM (inactive) | > 100 µM (inactive) | > 100 µM (inactive) | > 100 µM (inactive) | > 100 µM (inactive) | > 100 µM (inactive) | > 100 µM (inactive) | > 100 µM (inactive) | > 100 µM (inactive) | > 100 µM (inactive) | > 100 µM (inactive) | > 100 µM (inactive) | > 100 µM (inactive) | > 100 µM (inactive) |
| CCN(CC)C1Oc2cc3c(cc2C(c2ccc(OC)cc2)C1C)OCO3 (stereo not given) | 24.9 µM (inactive) | 17.6 µM (inactive) | 25.6 µM (inactive) | 19 µM (inactive) | 18.9 | 25.3 µM (inactive) | 18.7 µM (inactive) | 21.2 µM (inactive) | 18.9 µM (inactive) | 17.6 µM (inactive) | 21.8 µM (inactive) | 15 µM (inactive) | 18.2 µM (inactive) | 19.5 µM (inactive) | 23.8 µM (inactive) | 18.9 µM (inactive) | 17.3 µM (inactive) | 40.2 µM (inactive) | 22.2 µM (inactive) | 19.1 µM (inactive) |
